One data set has as its system Canidae. The following applies: chronic; duration: 1 years; oral; Dog Other; organ weight.
A further data set has as its system Oncorhynchus mykiss. To be noted: acute; duration: 96 hours; mortality.
The test system of the next data set is Daphnia magna. To be noted: chronic/long-term; duration: 21 days; reproduction.
In another data set the test system is Rattus norvegicus. The following applies: for NOAEL: organ weight.
For the next data set, the system named is Pimephales promelas. The following applies: chronic/long-term; duration: 33 days; growth.
For another data set, the system named is Bibionidae. To be noted: chronic/long-term; duration: 28 days.
Another data set concerns Apis mellifera. The following applies: acute; duration: 48 hours; oral; unspecified; mortality.
The test system of another data set is Aphidius rhopalosiphi. As to the kind of experiment: LR50; higher = less toxic. To be noted: not reported; mortality.

The record followed here is EPA's ToxValDB 9.5 (doi:10.2903/j.efsa.2010.1542).

One may read the NOAEL as the highest dose or exposure tested at which no adverse effect was seen.

Converted amounts (≈) assume the structure as drawn.

`CO/C=C(/C(=O)OC)c1ccccc1Oc1cc(Oc2ccccc2C#N)ncn1` [Azoxystrobin]: the no observed adverse effect level (NOAEL) in the data set with Canidae was 25 mg/kg-day; with Rattus norvegicus (chronic, duration: 2 years, oral, diet) it was 18 mg/kg-day; in the data set with Rattus norvegicus (subchronic, duration: 90 days, oral), 21 mg/kg-day. The LC50 in the data set with Oncorhynchus mykiss is 0.47 µg/mL (≈ 1.17 µM); in the data set with Tagia sp. (acute, duration: 14 days, mortality), 283 mg/kg; in the data set on Colinus virginianus (acute, oral, diet, mortality), over 5200 mg/kg-day. In addition, the NOEC was 3 mg/kg in the data set with Tagia sp. (chronic/long-term, duration: 56 days); 0.044 mg/L in the data set with Daphnia magna; 1200 mg/kg-day with Colinus virginianus (reproduction developmental); 0.147 mg/L in the data set on Pimephales promelas; 0.8 mg/L in the data set on Bibionidae. Further, the LD50 was over 2000 mg/kg-day with Colinus virginianus (acute, oral, mortality); over 5000 mg/kg-day in the data set on Rattus norvegicus (acute, oral, mortality); over 25 µg/piece with Apis mellifera. The same molecule showed an NOEL in the data set with Rattus norvegicus (reproduction developmental, body weight) of 32 mg/kg-day. The LR50 in the data set on Aphidius rhopalosiphi was over 1000 g/ha.
